Where “and” joins values, the source holds several entries; their conditions need not be identical. Equal values may be shown once.
Tested on: NCI-H929 complex spheroids, viability % test/control
Test: Anticancer human tumor NCI-H929 cell line growth inhibition [RAS];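 note: compound exposure lasted seven days before viability was read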;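 for viability, T/C: 100% = DMSO vehicle control viability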
Conditions: for viability, T/C: stronger effect = lower value; active = viability on the fitted dose curve at most 10% of control; inactive = the rest
Method in brief: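 Multi-cell-type spheroids: tumor cells plus HUVEC endothelial cells and mesenchymal stem cells. RAS-pathway inhibitors were combined with targeted agents, each dosed in half-log steps down from clinical Cmax, or from 10 microM when Cmax was unknown.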

[1] = curve of first compound, second compound 0.000949 µM
[2] = curve of first compound, second compound 0.003 µM
[3] = curve of first compound, second compound 0.00949 µM
[4] = curve of first compound, second compound 0.03 µM
[5] = curve of first compound, second compound 0.0949 µM
[6] = curve of first compound, second compound 0.3 µM
[7] = second compound 0.000949 µM, first compound 0.0316 µM
[8] = second compound 0.000949 µM, first compound 0.1 µM
[9] = second compound 0.003 µM, first compound 0.0316 µM
[10] = second compound 0.003 µM, first compound 0.1 µM
[11] = second compound 0.00949 µM, first compound 0.0316 µM
[12] = second compound 0.00949 µM, first compound 0.1 µM
[13] = second compound 0.03 µM, first compound 0.0316 µM
[14] = second compound 0.03 µM, first compound 0.1 µM
[15] = second compound 0.0949 µM, first compound 0.0316 µM
[16] = second compound 0.0949 µM, first compound 0.1 µM
[17] = second compound 0.3 µM, first compound 0.0316 µM
[18] = second compound 0.3 µM, first compound 0.1 µM

Nc1ccn(C2OC(CO)C(O)C2(F)F)c(=O)n1 (configuration not stated)
18.3 nM [middle of 4 runs]: IC50 (curve of compound)
inactive: viability, T/C (compound 0.00316 µM) 106% [middle of 4 runs]
active: viability, T/C (compound 0.0316 µM) 0.89% (2×) and 1.85% and 1.95% | viability, T/C (compound 0.1 µM) 1.62% [middle of 4 runs] | viability, T/C (compound 0.316 µM) 1.71% [middle of 4 runs] | viability, T/C (compound 1 µM) 1.37% [middle of 4 runs]

CC(C)n1nc(-c2ccc3oc(N)nc3c2)c2c(N)ncnc21 + C=CC(=O)N1CCN(c2nc(OCC3CCCN3C)nc3c(F)c(-c4nc(N)cc(C)c4C(F)(F)F)c(Cl)cc23)C(C)C1
inactive: viability, T/C (second compound 0.00316 µM, first compound 0.000316 µM) 102% | viability, T/C (second compound 0.00316 µM, first compound 0.001 µM) 104% | viability, T/C (second compound 0.00316 µM, first compound 0.00316 µM) 112% | viability, T/C (second compound 0.00316 µM, first compound 0.01 µM) 111% | viability, T/C (second compound 0.00316 µM, first compound 0.0316 µM) 118% | viability, T/C (second compound 0.00316 µM, first compound 0.1 µM) 10.6% | viability, T/C (second compound 0.01 µM, first compound 0.000316 µM) 102% | viability, T/C (second compound 0.01 µM, first compound 0.001 µM) 107% | viability, T/C (second compound 0.01 µM, first compound 0.00316 µM) 109% | viability, T/C (second compound 0.01 µM, first compound 0.01 µM) 114% | viability, T/C (second compound 0.01 µM, first compound 0.0316 µM) 122% | viability, T/C (second compound 0.01 µM, first compound 0.1 µM) 13% | viability, T/C (second compound 0.0316 µM, first compound 0.000316 µM) 98.6% | viability, T/C (second compound 0.0316 µM, first compound 0.001 µM) 106% | viability, T/C (second compound 0.0316 µM, first compound 0.00316 µM) 112% | viability, T/C (second compound 0.0316 µM, first compound 0.01 µM) 117% | viability, T/C (second compound 0.0316 µM, first compound 0.0316 µM) 126% | viability, T/C (second compound 0.0316 µM, first compound 0.1 µM) 12.9% | viability, T/C (second compound 0.1 µM, first compound 0.000316 µM) 95.4% | viability, T/C (second compound 0.1 µM, first compound 0.001 µM) 106% | viability, T/C (second compound 0.1 µM, first compound 0.00316 µM) 115% | viability, T/C (second compound 0.1 µM, first compound 0.01 µM) 117% | viability, T/C (second compound 0.1 µM, first compound 0.0316 µM) 122% | viability, T/C (second compound 0.1 µM, first compound 0.1 µM) 11.6% | viability, T/C (second compound 0.316 µM, first compound 0.000316 µM) 107% | viability, T/C (second compound 0.316 µM, first compound 0.001 µM) 111% | viability, T/C (second compound 0.316 µM, first compound 0.00316 µM) 109% | viability, T/C (second compound 0.316 µM, first compound 0.01 µM) 119% | viability, T/C (second compound 0.316 µM, first compound 0.0316 µM) 120% | viability, T/C (second compound 0.316 µM, first compound 0.1 µM) 13.3% | viability, T/C (second compound 1 µM, first compound 0.000316 µM) 114% | viability, T/C (second compound 1 µM, first compound 0.001 µM) 110% | viability, T/C (second compound 1 µM, first compound 0.00316 µM) 112% | viability, T/C (second compound 1 µM, first compound 0.01 µM) 117% | viability, T/C (second compound 1 µM, first compound 0.0316 µM) 120% | viability, T/C (second compound 1 µM, first compound 0.1 µM) 9.93%
64.2 nM: IC50 (curve of first compound, second compound 0.1 µM)
64.4 nM: IC50 (curve of first compound, second compound 1 µM)
65.5 nM: IC50 (curve of first compound, second compound 0.316 µM)
64.7 nM: IC50 (curve of first compound, second compound 0.01 µM)
63.2 nM: IC50 (curve of first compound, second compound 0.00316 µM)
65 nM: IC50 (curve of first compound, second compound 0.0316 µM)

CC(=O)OC12COC1CC(O)C1(C)C(=O)C(O)C3=C(C)C(OC(=O)C(O)C(NC(=O)OC(C)(C)C)c4ccccc4)CC(O)(C(OC(=O)c4ccccc4)C21)C3(C)C (configuration not stated) + CCn1c(-c2cccnc2C(C)OC)c2c3cc(ccc31)N1CCOC(CC(NC(=O)C(C(C)C)N(C)C(=O)C3(F)CCN(C(=O)C#CC(C)(C)N(C)C)CC3)C(=O)N3CCCC(N3)C(=O)OCC(C)(C)C2)C1
< 31.6 nM: IC50 [1] | IC50 [2] | IC50 [3] | IC50 [4] | IC50 [5] | IC50 [6]
active: viability, T/C [7] 0.74% | viability, T/C [8] 0.57% | viability, T/C (second compound 0.000949 µM, first compound 0.316 µM) 0.52% | viability, T/C (second compound 0.000949 µM, first compound 1 µM) 0.54% | viability, T/C (second compound 0.000949 µM, first compound 3.16 µM) 0.6% | viability, T/C (second compound 0.000949 µM, first compound 10 µM) 0.65% | viability, T/C [9] 0.76% | viability, T/C [10] 0.89% | viability, T/C (second compound 0.003 µM, first compound 0.316 µM) 0.7% | viability, T/C (second compound 0.003 µM, first compound 1 µM) 0.54% | viability, T/C (second compound 0.003 µM, first compound 3.16 µM) 0.6% | viability, T/C (second compound 0.003 µM, first compound 10 µM) 0.71% | viability, T/C [11] 0.76% | viability, T/C [12] 0.82% | viability, T/C (second compound 0.00949 µM, first compound 0.316 µM) 0.62% | viability, T/C (second compound 0.00949 µM, first compound 1 µM) 0.64% | viability, T/C (second compound 0.00949 µM, first compound 3.16 µM) 0.66% | viability, T/C (second compound 0.00949 µM, first compound 10 µM) 0.68% | viability, T/C [13] 0.73% | viability, T/C [14] 0.53% | viability, T/C (second compound 0.03 µM, first compound 0.316 µM) 0.75% | viability, T/C (second compound 0.03 µM, first compound 1 µM) 0.63% | viability, T/C (second compound 0.03 µM, first compound 3.16 µM) 0.5% | viability, T/C (second compound 0.03 µM, first compound 10 µM) 0.52% | viability, T/C [15] 0.63% | viability, T/C [16] 0.57% | viability, T/C (second compound 0.0949 µM, first compound 0.316 µM) 0.51% | viability, T/C (second compound 0.0949 µM, first compound 1 µM) 0.63% | viability, T/C (second compound 0.0949 µM, first compound 3.16 µM) 0.58% | viability, T/C (second compound 0.0949 µM, first compound 10 µM) 0.72% | viability, T/C [17] 0.63% | viability, T/C [18] 0.68% | viability, T/C (second compound 0.3 µM, first compound 0.316 µM) 0.63% | viability, T/C (second compound 0.3 µM, first compound 1 µM) 0.6% | viability, T/C (second compound 0.3 µM, first compound 3.16 µM) 0.65% | viability, T/C (second compound 0.3 µM, first compound 10 µM) 0.71%

CC(C)n1nc(-c2ccc3oc(N)nc3c2)c2c(N)ncnc21 + CCn1c(-c2cccnc2C(C)OC)c2c3cc(ccc31)N1CCOC(CC(NC(=O)C(C(C)C)N(C)C(=O)C3(F)CCN(C(=O)C#CC(C)(C)N(C)C)CC3)C(=O)N3CCCC(N3)C(=O)OCC(C)(C)C2)C1
29.7 nM: IC50 [5]
36.1 nM: IC50 [4]
39.4 nM: IC50 [3]
active: viability, T/C [8] 2.22% | viability, T/C [10] 2.31% | viability, T/C [12] 1.89% | viability, T/C [14] 1.72% | viability, T/C [16] 1.3% | viability, T/C [18] 1.08%
27.1 nM: IC50 [6]
38.8 nM: IC50 [2]
33.9 nM: IC50 [1]
inactive: viability, T/C (second compound 0.000949 µM, first compound 0.000316 µM) 104% | viability, T/C (second compound 0.000949 µM, first compound 0.001 µM) 103% | viability, T/C (second compound 0.000949 µM, first compound 0.00316 µM) 107% | viability, T/C (second compound 0.000949 µM, first compound 0.01 µM) 101% | viability, T/C [7] 53.1% | viability, T/C (second compound 0.003 µM, first compound 0.000316 µM) 105% | viability, T/C (second compound 0.003 µM, first compound 0.001 µM) 107% | viability, T/C (second compound 0.003 µM, first compound 0.00316 µM) 105% | viability, T/C (second compound 0.003 µM, first compound 0.01 µM) 98.5% | viability, T/C [9] 60.3% | viability, T/C (second compound 0.00949 µM, first compound 0.000316 µM) 101% | viability, T/C (second compound 0.00949 µM, first compound 0.001 µM) 105% | viability, T/C (second compound 0.00949 µM, first compound 0.00316 µM) 106% | viability, T/C (second compound 0.00949 µM, first compound 0.01 µM) 99.8% | viability, T/C [11] 61.4% | viability, T/C (second compound 0.03 µM, first compound 0.000316 µM) 97.8% | viability, T/C (second compound 0.03 µM, first compound 0.001 µM) 104% | viability, T/C (second compound 0.03 µM, first compound 0.00316 µM) 106% | viability, T/C (second compound 0.03 µM, first compound 0.01 µM) 100% | viability, T/C [13] 56.2% | viability, T/C (second compound 0.0949 µM, first compound 0.000316 µM) 98.7% | viability, T/C (second compound 0.0949 µM, first compound 0.001 µM) 108% | viability, T/C (second compound 0.0949 µM, first compound 0.00316 µM) 108% | viability, T/C (second compound 0.0949 µM, first compound 0.01 µM) 100% | viability, T/C [15] 47.2% | viability, T/C (second compound 0.3 µM, first compound 0.000316 µM) 102% | viability, T/C (second compound 0.3 µM, first compound 0.001 µM) 107% | viability, T/C (second compound 0.3 µM, first compound 0.00316 µM) 108% | viability, T/C (second compound 0.3 µM, first compound 0.01 µM) 99.5% | viability, T/C [17] 42.4%

Reference: PubChem BioAssay AID2060884 (Molecular Pharmacology Branch, DTP, NCI, 2025)
